Measured values: BindingDB's records for patent US20250313563 (The Broad Institute, 2025)
Values joined by “and” are separate entries in the source; they are usually repeats but may differ in a detail not shown here. Equal values may be shown once.

Legend:
[1] = target: Glycogen synthase kinase-3 beta (Homo sapiens, UniProt P49841); assay: TR-FRET Assay
Procedure, shortened: (§1)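 Enzyme and test compound were first incubated together for 30 minutes in assay buffer. The kinase reaction followed and was stopped with EDTA. The pSer641 signal was read by time-resolved FRET.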

[2] = target: Glycogen synthase kinase-3 alpha (Homo sapiens, UniProt P49840); assay: TR-FRET Assay
Procedure, shortened: as §1

Chain of Glycogen synthase kinase-3 alpha (P49840 whole entry): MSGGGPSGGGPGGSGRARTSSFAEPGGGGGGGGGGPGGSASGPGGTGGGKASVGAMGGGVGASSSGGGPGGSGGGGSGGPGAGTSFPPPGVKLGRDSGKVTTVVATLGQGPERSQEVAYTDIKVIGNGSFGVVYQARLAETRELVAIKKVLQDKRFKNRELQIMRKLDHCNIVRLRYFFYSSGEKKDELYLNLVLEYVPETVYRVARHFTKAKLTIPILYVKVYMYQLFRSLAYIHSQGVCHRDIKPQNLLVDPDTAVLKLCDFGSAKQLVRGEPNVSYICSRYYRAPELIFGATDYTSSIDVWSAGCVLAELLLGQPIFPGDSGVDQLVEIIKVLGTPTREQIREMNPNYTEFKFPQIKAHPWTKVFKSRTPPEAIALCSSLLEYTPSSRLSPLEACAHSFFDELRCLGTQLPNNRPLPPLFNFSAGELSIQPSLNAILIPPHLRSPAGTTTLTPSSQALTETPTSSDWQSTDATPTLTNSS
Chain of Glycogen synthase kinase-3 beta (P49841 whole entry): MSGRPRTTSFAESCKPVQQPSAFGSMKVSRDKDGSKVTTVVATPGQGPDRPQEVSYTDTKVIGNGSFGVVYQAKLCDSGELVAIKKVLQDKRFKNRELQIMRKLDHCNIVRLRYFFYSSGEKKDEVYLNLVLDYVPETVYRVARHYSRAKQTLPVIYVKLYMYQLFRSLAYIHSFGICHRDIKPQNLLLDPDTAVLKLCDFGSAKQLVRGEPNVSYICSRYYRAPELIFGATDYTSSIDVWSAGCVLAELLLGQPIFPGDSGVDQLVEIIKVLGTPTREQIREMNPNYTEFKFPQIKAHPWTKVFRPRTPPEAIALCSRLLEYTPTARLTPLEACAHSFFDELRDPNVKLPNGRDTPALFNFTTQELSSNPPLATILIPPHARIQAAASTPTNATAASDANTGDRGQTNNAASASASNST

In the case of `CC[C@]1(c2cccc(-c3ccncc3C)c2)C2=C(CC(C)(C)CC2=O)NC2N=NC(C(F)(F)F)=C21` (stereo not given in full) [US20250313563, Compound 947324], the IC50 [1] is reported as < 100 nM and the IC50 [2] is reported as < 100 nM.
`CC[C@@]1(c2cccc(-c3ccncc3C)c2)C2=C(CC(C)(C)CC2=O)NC2N=NC(C(F)(F)F)=C21` (stereo not given in full) [US20250313563, Compound 947325] was tested, and the IC50 [1] was 100 to 1000 nM and the IC50 [2] was < 100 nM.
With `CC[C@]1(c2cccc(-c3ccncc3F)c2)C2=C(CC(C)(C)CC2=O)NC2N=NC(C(F)(F)F)=C21` (stereo not given in full) [US20250313563, Compound 947326] the IC50 [1] was < 100 nM and the IC50 [2] was < 100 nM.
With `CC[C@@]1(c2cccc(-c3ccncc3F)c2)C2=C(CC(C)(C)CC2=O)NC2N=NC(C(F)(F)F)=C21` (stereo not given in full) [US20250313563, Compound 947327] the IC50 [1] was 100 to 1000 nM and the IC50 [2] was < 100 nM.
Compound `CC[C@]1(c2cccc(-c3ccnc(C)c3C)c2)C2=C(CC(C)(C)CC2=O)NC2N=NC(C(F)(F)F)=C21` (stereo not given in full) [US20250313563, Compound 947328] has an IC50 [1] of 100 to 1000 nM and an IC50 [2] of 100 to 1000 nM.
For `CCC1(c2cccc(C(F)(F)F)c2)C2=CN=NC2NC2=C1C(=O)N(c1ccc(OC)cc1)CC2` (stereo not given) [US20250313563, Compound 947332], the IC50 [1] was 100 to 1000 nM and the IC50 [2] was < 100 nM.
`CCN(c1cccc([C@]2(CC)C3=CN=NC3NC3=C2C(=O)CC(C)(C)C3)c1)c1ncccn1` (stereo not given in full) [US20250313563, Compound 947334] showed an IC50 [1] of 1000 to 5000 nM and an IC50 [2] of 100 to 1000 nM.
`CC[C@]1(c2cccc(N(C)c3nccc(OC)n3)c2)C2=CN=NC2NC2=C1C(=O)CC(C)(C)C2` (stereo not given in full) [US20250313563, Compound 947336] was tested, and the IC50 [1] was < 100 nM and 1000 to 5000 nM and the IC50 [2] was < 100 nM and 100 to 1000 nM.
Compound `CC[C@@]1(c2cccc(N(C)c3nccc(OC)n3)c2)C2=CN=NC2NC2=C1C(=O)CC(C)(C)C2` (stereo not given in full) [US20250313563, Compound 947337] has an IC50 [1] of 1000 to 5000 nM and an IC50 [2] of 100 to 1000 nM.
Work on `CC[C@@]1(c2cccc(-c3cc(C)ncc3C)c2)C2=C(CC(C)(C)NC2=O)NC2N=NC(C(F)(F)F)=C21` (stereo not given in full) [US20250313563, Compound 947364] yielded an IC50 [1] of 100 to 1000 nM and an IC50 [2] of 100 to 1000 nM.
`CC[C@]1(c2cccc(-c3ccnn3C)c2)C2=C(CC(C)(C)CC2=O)NC2N=NC(C(F)(F)F)=C21` (stereo not given in full) [US20250313563, Compound 947365] was tested, and the IC50 [1] was 1000 to 5000 nM and the IC50 [2] was 100 to 1000 nM.
In the case of `CC[C@@]1(c2cccc(-c3ccnn3C)c2)C2=C(CC(C)(C)CC2=O)NC2N=NC(C(F)(F)F)=C21` (stereo not given in full) [US20250313563, Compound 947372], the IC50 [1] is reported as < 100 nM and the IC50 [2] is reported as < 100 nM.
For `CC[C@]1(c2cccc(-c3cc(C)nn3C)c2)C2=C(CC(C)(C)CC2=O)NC2N=NC(C(F)(F)F)=C21` (stereo not given in full) [US20250313563, Compound 947383], the IC50 [1] was > 5000 nM and the IC50 [2] was 1000 to 5000 nM.
For `CC[C@@]1(c2cccc(-c3cc(C)nn3C)c2)C2=C(CC(C)(C)CC2=O)NC2N=NC(C(F)(F)F)=C21` (stereo not given in full) [US20250313563, Compound 947384], the IC50 [1] was < 100 nM and 100 to 1000 nM and the IC50 [2] was < 100 nM.
With `CCC1(c2cccc(S(C)(=O)=O)c2)C2=C(CC(C)(C)NC2=O)NC2N=NC(C)=C21` (stereo not given) [US20250313563, Compound 947395B:] the IC50 [1] was < 100 nM and the IC50 [2] was < 100 nM.
With `CCC1(c2cccc(S(C)(=O)=O)c2)C2=C(CC(C)(C)NC2=O)NC2N=NC(C)=C21` (stereo not given) [US20250313563, Compound 947395] the IC50 [1] was 100 to 1000 nM and the IC50 [2] was 100 to 1000 nM.
`CCC1(c2cccc(S(=O)(=O)C(C)C)c2)C2=C(CC(C)(C)NC2=O)NC2N=NC(C)=C21` (stereo not given) [US20250313563, Compound 947396] was tested, and the IC50 [1] was < 100 nM and the IC50 [2] was < 100 nM.
For `CCC1(c2cccc(-c3cnnn3C(C)C)c2)C2=CN=NC2NC2=C1C(=O)CC(C)(C)C2` (stereo not given) [US20250313563, Compound 947397], the IC50 [1] was < 100 nM and the IC50 [2] was < 100 nM.
`CCC1(c2cccc(-c3cnnn3C)c2)C2=CN=NC2NC2=C1C(=O)CC(C)(C)C2` (stereo not given) [US20250313563, Compound 947398] was tested, and the IC50 [1] was < 100 nM and the IC50 [2] was < 100 nM.
For `CCC1(c2cccc(-c3ccnc(C)c3C)c2)C2=C(CC(C)(C)NC2=O)NC2N=NC(C)=C21` (stereo not given) [US20250313563, Compound 947399], the IC50 [1] was 1000 to 5000 nM and the IC50 [2] was 100 to 1000 nM.
